Assays:
[1] = target: T1, isolated kinase domain of the human FLT3 receptor (a.a. 571-993) (Homo sapiens, UniProt P36888); experiment: FLT3 Fluorescence Polarization Kinase Assay; format: biochemical; settings: 10 nM FLT3 571-993, 150 uM ATP; uncertainty ±10%
T1 construct: isolated kinase domain of the human FLT3 receptor (a.a. 571-993)
T1 sequence (P36888 571-993): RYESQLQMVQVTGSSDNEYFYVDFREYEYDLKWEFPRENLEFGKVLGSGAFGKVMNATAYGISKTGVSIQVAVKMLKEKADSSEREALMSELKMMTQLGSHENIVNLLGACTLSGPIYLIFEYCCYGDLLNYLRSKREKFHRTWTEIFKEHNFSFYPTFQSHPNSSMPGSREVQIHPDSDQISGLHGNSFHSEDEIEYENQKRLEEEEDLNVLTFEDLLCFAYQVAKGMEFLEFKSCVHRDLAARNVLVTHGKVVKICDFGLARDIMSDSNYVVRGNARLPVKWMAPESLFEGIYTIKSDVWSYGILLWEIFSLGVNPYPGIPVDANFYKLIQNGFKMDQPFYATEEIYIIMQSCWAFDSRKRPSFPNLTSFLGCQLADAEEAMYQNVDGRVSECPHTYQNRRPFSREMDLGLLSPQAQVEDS
Protocol: FLT3 Fluorescence Polarization Kinase Assay
To determine the activity of the FLT3 inhibitors of Formula I′ in an in vitro kinase assay, inhibition of the isolated kinase domain of the human FLT3 receptor (a.a. 571-993) was performed using the following fluorescence polarization (FP) protocol. The FLT3 FP assay utilizes the fluorescein-labeled phosphopeptide and the anti-phosphotyrosine antibody included in the Panvera Phospho-Tyrosine Kinase Kit (Green) supplied by Invitrogen. When FLT3 phosphorylates polyGlu4Tyr, the fluorescein-labeled phosphopeptide is displaced from the anti-phosphotyrosine antibody by the phosphorylated poly Glu4Tyr, thus decreasing the FP value. The FLT3 kinase reaction is incubated at room temperature for 30 minutes under the following conditions: 10 nM FLT3 571-993, 20 ug/mL poly Glu4Tyr, 150 uM ATP, 5 mM MgCl2, 1% compound in DMSO. The kinase reaction is stopped with the addition of EDTA. The fluorescein-labeled phosphopeptide and the anti-phosphotyrosine antibody are added and incubated for 30 minutes at room temperature.
All data points are an average of triplicate samples. Inhibition and IC50 data analysis was done with GraphPad Prism using a non-linear regression fit with a multiparamater, sigmoidal dose-response (variable slope) equation.

MV4-11 cells = experiment: Inhibition of MV4-11 cell proliferation (CellTiterGlo, 72 hours); format: cell-based; settings: Homo sapiens; 72 hours growth; uncertainty ±20%
Protocol: Inhibition Of MV4-11 and Baf3 Cell Proliferation
To assess the cellular potency of the FLT3 inhibitors of Formula I′, FLT3 specific growth inhibition was measured in the leukemic cell line MV4-11 (ATCC Number: CRL-9591). […] MV4-11 cells cannot grow and survive without active FLT3ITD.
To measure proliferation inhibition by test compounds, the luciferase based CellTiterGlo reagent (Promega), which quantifies total cell number based on total cellular ATP concentration, was used. Cells are plated at 10,000 cells per well in 100 ul of in RPMI media containing penn/strep, 10% FBS and 1 ng/ml GM-CSF or 1 ng/ml IL-3 for MV4-11 and Baf3 cells respectively.
Compound dilutions or 0.1% DMSO (vehicle control) are added to cells and the cells are allowed to grow for 72 hours at standard cell growth conditions (37° C., 5% CO2). For activity measurements in MV4-11 cells grown in 50% plasma, cells were plated at 10,000 cells per well in a 1:1 mixture of growth media and human plasma (final volume of 100 μL). To measure total cell growth an equal volume of CellTiterGlo reagent was added to each well, according to the manufacturer's instructions, and luminescence was quantified. Total cell growth was quantified as the difference in luminescent counts (relative light units, RLU) of cell number at Day 0 compared to total cell number at Day 3 (72 hours of growth and/or compound treatment). One hundred percent inhibition of growth is defined as an RLU equivalent to the Day 0 reading. Zero percent inhibition was defined as the RLU signal for the DMSO vehicle control at Day 3 of growth. All data points are an average of triplicate samples. […] Inhibition and IC50 data analysis was done with GraphPad Prism using a non-linear regression fit with a multiparamater, sigmoidal dose-response (variable slope) equation.
MV4-11 cells express the FLT3 internal tandem duplication mutation, and thus are entirely dependent upon FLT3 activity for growth. […] In contrast, the Baf3 cell proliferation is driven by the cytokine IL-3 and thus are used as a non-specific toxicity control for test compounds.

Compound: CO/N=C/c1c(N)ncnc1N1CCC(OC(=O)Nc2ccc(OC(C)C)cc2)CC1 [Number 1, (4-Isopropoxy-phenyl)-carbamic acid 1-[6-amino-5-(methoxyimino-methyl)-pyrimidin-4-yl]-piperidin-4-yl ester]
- IC50 [1]: 150 nM
- IC50 (MV4-11 cells): 740 nM

Compound: CCO/N=C/c1c(N)ncnc1N1CCC(OC(=O)Nc2ccc(OC(C)C)cc2)CC1 [Number 2, (4-Isopropoxy-phenyl)-carbamic acid 1-[6-amino-5-(ethoxyimino-methyl)-pyrimidin-4-yl]-piperidin-4-yl ester]
- IC50 [1]: 55 nM
- IC50 (MV4-11 cells): 135 nM

Compound: CC(C)Oc1ccc(NC(=O)OC2CCN(c3ncnc(N)c3/C=N/OCCCN(C)C)CC2)cc1 [Number 4, (4-Isopropoxy-phenyl)-carbamic acid 1-{6-amino-5-[(3-dimethylamino-propoxyimino)-methyl]-pyrimidin-4-yl}-piperidin-4-yl ester]
- IC50 [1]: 300 nM
- IC50 (MV4-11 cells): 1400 nM

Compound: CO/N=C/c1c(N)ncnc1N1CCC(OC(=O)Nc2ccc(C(C)C)cc2)CC1 [Number 5, (4-Isopropyl-phenyl)-carbamic acid 1-[6-amino-5-(methoxyimino-methyl)-pyrimidin-4-yl]-piperidin-4-yl ester]
- IC50 [1]: 29 nM
- IC50 (MV4-11 cells): 11 nM

Compound: CO/N=C/c1c(N)ncnc1N1CCC(CC(=O)Nc2ccc(C(C)C)cc2)C1 (stereo not shown) [Number 6, 2-{1-[6-Amino-5-(methoxyimino-methyl)-pyrimidin-4-yl]-pyrrolidin-3-yl}-N-(4-isopropyl-phenyl)-acetamide]
- IC50 [1]: 16 nM
- IC50 (MV4-11 cells): 31 nM

Compound: CO/N=C/c1c(N)ncnc1N1CCC(CC(=O)Nc2ccc(C(C)C)cc2)CC1 [Number 7, 2-{1-[6-Amino-5-(methoxyimino-methyl)-pyrimidin-4-yl]-piperidin-4-yl}-N-(4-isopropyl-phenyl)-acetamide]
- IC50 [1]: 81 nM
- IC50 (MV4-11 cells): 208 nM

Compound: CO/N=C/c1c(N)ncnc1N1CCC(NC(=O)Nc2ccc(OC(C)C)cc2)C1 (stereo not shown) [Number 8, 1-{1-[6-Amino-5-(methoxyimino-methyl)-pyrimidin-4-yl]-pyrrolidin-3-yl}-3-(4-isopropoxy-phenyl)-urea]
- IC50 [1]: 290 nM
- IC50 (MV4-11 cells): 455 nM

Compound: CO/N=C/c1c(N)ncnc1N1CCC(NC(=O)Nc2ccc(N3CCCCC3)cc2)C1 (stereo not shown) [Number 9, 1-{1-[6-Amino-5-(methoxyimino-methyl)-pyrimidin-4-yl]-pyrrolidin-3-yl}-3-(4-piperidin-1-yl-phenyl)-urea]
- IC50 [1]: 450 nM
- IC50 (MV4-11 cells): 764 nM

Compound: CO/N=C/c1c(N)ncnc1N1CCC(NC(=O)Nc2ccc(N3CCOCC3)cc2)C1 (stereo not shown) [Number 10, 1-{1-[6-Amino-5-(methoxyimino-methyl)-pyrimidin-4-yl]-pyrrolidin-3-yl}-3-(4-morpholin-4-yl-phenyl)-urea]
- IC50 [1]: 1100 nM
- IC50 (MV4-11 cells): 569 nM

Compound: CO/N=C/c1c(N)ncnc1N1CCC(NC(=O)Nc2ccc(OC3CCC3)nc2)C1 (stereo not shown) [Number 11, 1-{1-[6-Amino-5-(methoxyimino-methyl)-pyrimidin-4-yl]-pyrrolidin-3-yl}-3-(6-cyclobutoxy-pyridin-3-yl)-urea]
- IC50 [1]: 160 nM
- IC50 (MV4-11 cells): 398 nM

Compound: CO/N=C/c1c(N)ncnc1N1CCC(NC(=O)Nc2ccc(OC(C)C)cc2)CC1 [Number 12, 1-{1-[6-Amino-5-(methoxyimino-methyl)-pyrimidin-4-yl]-piperidin-4-yl}-3-(4-isopropoxy-phenyl)-urea]
- IC50 [1]: 460 nM
- IC50 (MV4-11 cells): 672 nM

Compound: CO/N=C/c1c(N)ncnc1N1CCC(NC(=O)Nc2ccc(N3CCCCC3)cc2)CC1 [Number 13, 1-{1-[6-Amino-5-(methoxyimino-methyl)-pyrimidin-4-yl]-piperidin-4-yl}-3-(4-piperidin-1-yl-phenyl)-urea]
- IC50 [1]: 310 nM
- IC50 (MV4-11 cells): 587 nM

Compound: CO/N=C/c1c(N)ncnc1N1CCC(NC(=O)Nc2ccc(N3CCOCC3)cc2)CC1 [Number 14, 1-{1-[6-Amino-5-(methoxyimino-methyl)-pyrimidin-4-yl]-piperidin-4-yl}-3-(4-morpholin-4-yl-phenyl)-urea]
- IC50 [1]: 880 nM
- IC50 (MV4-11 cells): 1200 nM

Compound: CO/N=C/c1c(N)ncnc1N1CCC(NC(=O)Nc2ccc(OC3CCC3)nc2)CC1 [Number 15, 1-{1-[6-Amino-5-(methoxyimino-methyl)-pyrimidin-4-yl]-piperidin-4-yl}-3-(6-cyclobutoxy-pyridin-3-yl)-urea]
- IC50 [1]: 410 nM
- IC50 (MV4-11 cells): 578 nM

Compound: CO/N=C/c1c(N)ncnc1N1CCC(NC(=O)Nc2ccc(C3CCCCC3)cc2)C1 (stereo not shown) [Number 17, 1-{1-[6-Amino-5-(methoxyimino-methyl)-pyrimidin-4-yl]-pyrrolidin-3-yl}-3-(4-cyclohexyl-phenyl)-urea]
- IC50 [1]: > 10000 nM
- IC50 (MV4-11 cells): 386 nM

Compound: CO/N=C/c1c(N)ncnc1N1CCC(NC(=O)Nc2ccc(Cl)cc2)C1 (stereo not shown) [Number 18, 1-{1-[6-Amino-5-(methoxyimino-methyl)-pyrimidin-4-yl]-pyrrolidin-3-yl}-3-(4-chloro-phenyl)-urea]
- IC50 [1]: 2970 nM
- IC50 (MV4-11 cells): 735 nM

Compound: CO/N=C/c1c(N)ncnc1N1CCC(NC(=O)Nc2ccc(Oc3ccccc3)cc2)C1 (stereo not shown) [Number 19, 1-{1-[6-Amino-5-(methoxyimino-methyl)-pyrimidin-4-yl]-pyrrolidin-3-yl}-3-(4-phenoxy-phenyl)-urea]
- IC50 [1]: 2500 nM
- IC50 (MV4-11 cells): 371 nM

Compound: CO/N=C/c1c(N)ncnc1N1CCC(NC(=O)Nc2ccc(N3CCCC3)cc2)C1 (stereo not shown) [Number 20, 1-{1-[6-Amino-5-(methoxyimino-methyl)-pyrimidin-4-yl]-pyrrolidin-3-yl}-3-(4-pyrrolidin-1-yl-phenyl)-urea]
- IC50 [1]: 4500 nM
- IC50 (MV4-11 cells): 491 nM

Compound: CO/N=C/c1c(N)ncnc1N1CCC(NC(=O)Nc2ccc(OC3CCCC3)nc2)C1 (stereo not shown) [Number 21, 1-{1-[6-Amino-5-(methoxyimino-methyl)-pyrimidin-4-yl]-pyrrolidin-3-yl}-3-(6-cyclopentyloxy-pyridin-3-yl)-urea]
- IC50 [1]: 4500 nM
- IC50 (MV4-11 cells): 249 nM

Compound: CO/N=C/c1c(N)ncnc1N1CCC(NC(=O)Nc2ccc(C3CCCCC3)cc2)CC1 [Number 22, 1-{1-[6-Amino-5-(methoxyimino-methyl)-pyrimidin-4-yl]-piperidin-4-yl}-3-(4-cyclohexyl-phenyl)-urea]
- IC50 [1]: 78 nM
- IC50 (MV4-11 cells): 672 nM

Compound: CO/N=C/c1c(N)ncnc1N1CCC(NC(=O)Nc2ccc(OC3CCCC3)nc2)CC1 [Number 23, 1-{1-[6-Amino-5-(methoxyimino-methyl)-pyrimidin-4-yl]-piperidin-4-yl}-3-(6-cyclopentyloxy-pyridin-3-yl)-urea]
- IC50 [1]: 65 nM
- IC50 (MV4-11 cells): 651 nM

Compound: CO/N=C/c1c(N)ncnc1N1CCC(NC(=O)Nc2ccc(Cl)cc2)CC1 [Number 25, 1-{1-[6-Amino-5-(methoxyimino-methyl)-pyrimidin-4-yl]-piperidin-4-yl}-3-(4-chloro-phenyl)-urea]
- IC50 [1]: 34 nM
- IC50 (MV4-11 cells): 890 nM

Compound: CO/N=C/c1c(N)ncnc1N1CCC(NC(=O)Nc2ccc(Oc3ccccc3)cc2)CC1 [Number 26, 1-{1-[6-Amino-5-(methoxyimino-methyl)-pyrimidin-4-yl]-piperidin-4-yl}-3-(4-phenoxy-phenyl)-urea]
- IC50 [1]: 20 nM
- IC50 (MV4-11 cells): 856 nM
